Source: PubChem BioAssay AID488788 (Broad Institute, 2010)
Results filed as inconclusive are left out. The source made the active and inactive calls. How the calls were made is not given here.

biological target: CAAX prenyl protease 2 (Saccharomyces cerevisiae (strain ATCC 204508 / S288c)) (UniProt Q03530); experiment: Rce1p protease inhibitors, dose response, biochemical, plate reader, cherry-pick (AID 488788); conditions: Rce1p enzyme activity, at 10 µM (top of the series)
Sequence (Q03530 whole entry, looked up): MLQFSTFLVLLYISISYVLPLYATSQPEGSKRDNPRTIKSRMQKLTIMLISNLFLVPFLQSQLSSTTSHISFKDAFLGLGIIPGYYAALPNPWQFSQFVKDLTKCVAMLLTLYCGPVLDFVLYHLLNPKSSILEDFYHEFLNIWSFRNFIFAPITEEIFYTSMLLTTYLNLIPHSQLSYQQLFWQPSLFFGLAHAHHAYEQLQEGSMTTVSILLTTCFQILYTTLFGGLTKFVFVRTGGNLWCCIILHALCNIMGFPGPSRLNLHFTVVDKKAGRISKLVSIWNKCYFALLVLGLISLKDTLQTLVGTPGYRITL

| SMILES | activity change, negative = inhibition |
| --- | --- |
| CC(=O)OCC[N+](C)(C)C | inactive |
| CCOc1cc(CNC2CCCC2)ccc1OCc1ccccc1Cl | inactive |
| COc1ccccc1-c1cc(C(=O)O)c2c(=O)n(C)c(=O)n(Cc3ccccc3)c2n1 | inactive |
| CCCCNC(=S)NNC(=O)CCn1cc(C)cn1 | inactive |
| COCCn1cc(C(=O)NCCN(C)C)c2c3ccccc3n(C)c2c1=O | inactive |
| CCCCOc1ccc(Cc2c(COCC)[nH]c(=S)[nH]c2=O)cc1 | inactive |
| CN1CC(C(=O)c2ccc(Cl)cc2)C(c2ccc(Cl)cc2Cl)C1 (centres undefined) | inactive |
| COC(C/C=C/C(=O)[C@H](C)OCc1ccccc1)OC | inactive |
| CN(C)CCNc1ncnc2oc(-c3ccccc3)c(-c3ccccc3)c12 | inactive |
| CCCCn1c(=O)[nH]c(=O)c2c1nc(-c1ccc(OC)c(Br)c1)n2CC(C)C | inactive |
| c1cnn(Cc2cnc(N3CCOCC3)s2)c1 | inactive |
| CCn1cc(C(=O)NCCO)c(=O)c2cc(F)c(N3CCN(C)CC3)cc21 | inactive |
| COc1ccc(C)cc1NC(=O)CN1C(=O)COc2ccc(S(=O)(=O)N3CCOCC3)cc21 | inactive |
| CCC1CCCCN1C(=O)NC(=O)c1ccccc1 (centres undefined) | inactive |
| COC(C[C@@H]1O[C@@H]1C(=O)[C@@H](C)OCc1ccccc1)OC | inactive |
| CCn1nc(C)cc1C(=O)NC1CC(C)(C)Cc2c1cnn2-c1cccc(F)c1 (centres undefined) | inactive |
| COC(C[C@@H](O)C[C@H](O)[C@H](C)OCc1ccccc1)OC | inactive |
| CCCCn1c(-c2sccc2C)n[nH]c1=S | inactive |
| Cc1cc(C)cc(N2CC(O)=C(c3nc4ccccc4c(=O)[nH]3)C2=N)c1 | inactive |
| CCOC(=O)c1nnn2c1nc(N1CCOCC1)c1ccccc12 | inactive |
| CC(=O)OCC(=O)[C@@]12OC3(CCCC3)O[C@@H]1C[C@H]1[C@@H]3CCC4=CC(=O)C=C[C@]4(C)[C@@]3(F)[C@@H](O)C[C@@]12C | inactive |
| O=C1NC2(C=Cc3c(ccc4ccccc34)O2)Oc2ccccc21 (centres undefined) | inactive |
| O=C(CN1CCC(NC(=O)c2ccc(Br)cc2)CC1)NCc1cccs1 | inactive |

| SMILES | activity change, negative = inhibition |
| --- | --- |
| COc1cc(-c2nc3ccccn3c2/N=C/c2ccccc2)ccc1O | inactive |
| CCOc1ccc(NC(=O)CCSc2ccc(C)cc2)cc1 | inactive |
| CC1=C(C(=O)OCc2ccccc2)C(c2ccc(-c3ccccc3)cc2)NC(=O)N1CCCC(=O)O (centres undefined) | inactive |
| COc1cc(NC(=O)C/C(C)=N/NC(=O)c2cccc(O)c2)c(OC)cc1Cl | inactive |
| Cc1ccc(C(=O)N/C(=C/c2ccco2)C(=O)Nc2cccc(C(=O)O)c2)cc1 | inactive |
| C/C(CC(=O)NCc1ccco1)=N\NC(=O)c1ccc([N+](=O)[O-])cc1Cl | inactive |
| C/C(=N\NC(=O)c1ccc(Br)cc1)c1cccc(NC(=O)c2cccnc2)c1 | inactive |
| Cc1ccc(NS(=O)(=O)c2ccc(NC(=O)N3CCCCC3)cc2)cc1 | inactive |
| COc1ccccc1-n1c(-c2ccccc2)c[nH]c1=S | inactive |
| CCN(CC)CCCNC(=O)CCc1c(C)n(CC)c2cc(-c3ccccc3OC)nn2c1=O | inactive |
| O=C(O)c1ccc2cccc(Cl)c2c1O | inactive |
| COc1ccc(Cc2nc3ccc(C(=O)N4CCCC4)cc3o2)cc1 | inactive |
| O=C(NCC1CC1)c1ccc(Nc2nc3ccc(Br)cc3[nH]2)cc1 | inactive |
| CCNC(=S)NNC(=O)CCn1cc(C)cn1 | inactive |
| CCCOc1ccccc1C(=O)NCCCC(=O)O | inactive |
| O=C(O)c1ccc(Nc2nc3ccc(Cl)cc3[nH]2)cc1 | inactive |
| NC(N)=NC(=O)c1nc(Cl)c(N)nc1N | inactive |
| CCOC(=O)c1sc2nc(C3CC3)cc(-c3ccc(OC)cc3)c2c1N | inactive |
| CCN(CC)CCNC(=O)CSc1c2c(nc3cc(Cl)ccc13)CCCC2 | inactive |
| CCO[C@@H]1OC(C(=O)N2CCN(Cc3ccccc3)CC2)=C[C@H](c2ccccc2)[C@H]1CCCO | inactive |
| O=C(O)CCC(=O)c1ccc(-c2ccccc2)cc1 | inactive |
| Nc1ccccc1Oc1ccc2ccccc2c1 | inactive |
| Cc1nn(-c2ccccc2)c2nc(N)c(C(N)=O)cc12 | inactive |

| SMILES | activity change, negative = inhibition |
| --- | --- |
| COC(=O)C(Cc1ccccc1)OS(N)(=O)=O (centres undefined) | inactive |
| CCOC(=O)c1sc2nc(C3CC3)cc(-c3ccc(F)cc3)c2c1N | inactive |
| Cc1cc(C(=O)N/N=C/c2c3ccccc3cc3ccccc23)n[nH]1 | inactive |
| Cc1cc(C)n(CC(=O)NC2CCCCC2C)c(=O)c1C#N (centres undefined) | inactive |
| O=C(NCCc1c[nH]c2ccccc12)OCCSS(=O)(=O)O | inactive |
| CCCCn1c(=O)c(-c2ccccc2)c(O)c2ccccc21 | inactive |
| CC(C)c1cccc(OCC(=O)Nc2ccc(S(=O)(=O)Nc3ccccn3)cc2)c1 | inactive |
| COc1ccccc1NC(=O)/C(=C\c1cccnc1)NC(=O)c1ccc(C)cc1 | inactive |
| CC(=O)NC(Cc1c[nH]c2ccccc12)C(=O)O (centres undefined) | inactive |
| CN1C(=O)c2ccccc2N(C)C1c1ccccc1Cl (centres undefined) | inactive |
| C/C(CC1(O)C(=O)Nc2ccccc21)=N\O (centres undefined) | inactive |
| COC(C/C=C/[C@H](O)[C@H](C)OCc1ccccc1)OC | inactive |
| CN1CCN(C(=S)NC(=O)c2ccccc2Cl)CC1 | inactive |
| Cn1c(CCNS(=O)(=O)c2ccccc2)nnc1SCc1cccnc1 | inactive |
| CCC(=O)Nc1cc(-c2nn(CC(=O)N3CCCCC3)c(=O)c3ccccc23)ccc1N1CCOCC1 | inactive |
| COc1ccc2c3c([nH]c2c1)C(C)=NCC3 | inactive |
| Cc1nc(SC(C(=O)c2ccccc2)c2ccccc2)nc2ccccc12 (centres undefined) | inactive |
| Cc1ccc(C(=O)c2c3ccccc3[n+]([O-])n2CCO)cc1 | inactive |
| COCCCNC(=S)NCCNc1nc2cc(C)cc(C)c2cc1C#N | inactive |
| COc1ccc(S(=O)(=O)NCC2CCCO2)cc1NC(=O)c1ccccc1F (centres undefined) | inactive |
| Cc1nccc2c1[nH]c1ccccc12 | inactive |
| CC(=O)c1c(C)oc2ccc(NS(=O)(=O)c3ccc(C(=O)O)cc3)cc12 | inactive |
| O=C(CCCn1c(=O)[nH]c2ccc(Br)cc2c1=O)NCc1ccc(Cl)cc1 | inactive |
